Columns and labels:
MMP-2 [1] = molecular target: T1, MMP-2 (Homo sapiens, UniProt P08253); details: Curtin et al.; cited from earlier work
T1 sequence (P08253 110-660): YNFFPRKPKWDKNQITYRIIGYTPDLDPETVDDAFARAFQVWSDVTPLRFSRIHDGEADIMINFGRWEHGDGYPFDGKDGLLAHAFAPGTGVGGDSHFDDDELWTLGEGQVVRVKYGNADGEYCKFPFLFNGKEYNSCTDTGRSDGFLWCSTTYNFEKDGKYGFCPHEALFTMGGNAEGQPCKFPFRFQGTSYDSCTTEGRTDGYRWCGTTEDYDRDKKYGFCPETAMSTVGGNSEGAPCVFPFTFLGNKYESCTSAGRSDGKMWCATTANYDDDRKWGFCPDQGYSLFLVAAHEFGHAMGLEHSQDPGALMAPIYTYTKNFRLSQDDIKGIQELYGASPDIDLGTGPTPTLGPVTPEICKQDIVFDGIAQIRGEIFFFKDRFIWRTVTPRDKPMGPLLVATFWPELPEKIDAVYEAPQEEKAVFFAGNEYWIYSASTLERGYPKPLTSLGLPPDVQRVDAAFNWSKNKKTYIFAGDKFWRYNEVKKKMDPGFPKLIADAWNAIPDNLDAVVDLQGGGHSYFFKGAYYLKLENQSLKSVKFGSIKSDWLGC

MMP-2 and MMP-9 = details: Wada et al.; cited from earlier work
tumor growth = details: murine syngenetic tumor growth model; cited from earlier work
MMP-13 = MMP-13 (Homo sapiens, UniProt P45452); details: Chen et al.; cited from earlier work
MMP-9 = MMP-9 (Homo sapiens, UniProt P14780); details: Chen et al.; cited from earlier work
TACE = TACE (Homo sapiens, UniProt P78536); details: Chen et al.; cited from earlier work
MMP-1 = molecular target: T2, MMP-1 (Homo sapiens, UniProt P03956); details: Chen et al.; cited from earlier work
T2 sequence (P03956 100-469): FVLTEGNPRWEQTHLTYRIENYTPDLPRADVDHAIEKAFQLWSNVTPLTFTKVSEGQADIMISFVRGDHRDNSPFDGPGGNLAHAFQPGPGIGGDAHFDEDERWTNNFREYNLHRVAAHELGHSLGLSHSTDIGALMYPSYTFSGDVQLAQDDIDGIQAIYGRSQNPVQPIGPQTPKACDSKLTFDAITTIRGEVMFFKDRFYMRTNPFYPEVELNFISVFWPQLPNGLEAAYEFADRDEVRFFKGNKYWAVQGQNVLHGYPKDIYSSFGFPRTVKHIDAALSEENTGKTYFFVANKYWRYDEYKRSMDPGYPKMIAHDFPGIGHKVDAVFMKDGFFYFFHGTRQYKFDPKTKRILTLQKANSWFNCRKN

[2] = molecular target: T3, MMP-13 catalytic domain (MMP-13CD) (Homo sapiens, UniProt P45452); test: Fluorigenic peptide-1 substrate based assay, MMP-13CD, with/without AcNHOH; type: biochemical; details: IC50 with AcNHOH divided by IC50 without, listed as drawing 47
T3 construct: The catalytic domain of the MMP-13 enzyme, namely matrix metalloproteinase-13 catalytic domain (“MMP-13CD”)
Procedure: The catalytic domain of the MMP-13 enzyme, namely matrix metalloproteinase-13 catalytic domain (“MMP-13CD”), rather than the corresponding full-length enzyme, MMP-13 was used in such assay.
50 mM HEPES buffer (pH 7.0)
2% DMSO (with or without inhibitor test compound)
1. Dispensed 2 μL inhibitor test sample (in 100% DMSO) into well.
2. Added 88 μL assay mixture and mixed well, avoiding bubbles.
3. Initiated reactions with 10 μL of 5 nM MMP-13CD; mixed well, avoiding bubbles.
4. Immediately measured the kinetics of the reactions at room temperature.
Alternatively, an endpoint read can also be used to determine reaction velocity provided the initial fluorescence of the solution, as recorded before addition of enzyme, is subtracted from the final fluorescence of the reaction mixture.

MMP-9 full length (9FL) = molecular target: T4, MMP-9 full length (9FL) (Homo sapiens, UniProt P14780); test: Fluorigenic peptide-1 substrate based assay, MMP-9, with/without AcNHOH; type: biochemical
T4 construct: purchased Calbiochem; host or cells: stimulated neutrophils
Text: MMP-9 may be obtained from commercial sources. For example, full-length pro-MMP-9 purified from stimulated neutrophils is available from Calbiochem.

MMP-2 [3] = molecular target: T1, MMP-2; test: Steady-state kinetics of the mechanism of inhibition of MMP-2; type: biochemical; details: 6 inhibitor concentrations 0 to 600 nanomolar, FIG. 8
Text: In FIG. 8, 1 over the initial velocity Vo, which is the initial rate of product formation in a steady state kinetics assay, is plotted on the Y-axis versus 1 over concentration of substrate [S] used in the assay on the X-axis for inhibition of MMP-2 with N-[(3-phenylisoxazol-5-ylmethyl)-aminothiocarbonyl]-benzamide at 6 concentrations of from 0 nanomolar to 600 nanomolar.

MMP-2 full length (2FL) = molecular target: T5, MMP-2 full length (2FL) (Homo sapiens, UniProt P08253); test: Fluorigenic peptide-1 substrate based assay, MMP-2, with/without AcNHOH; type: biochemical
T5 sequence (P08253 110-660): T1 sequence (P08253 110-660)

Chain of TACE (P78536 215-824): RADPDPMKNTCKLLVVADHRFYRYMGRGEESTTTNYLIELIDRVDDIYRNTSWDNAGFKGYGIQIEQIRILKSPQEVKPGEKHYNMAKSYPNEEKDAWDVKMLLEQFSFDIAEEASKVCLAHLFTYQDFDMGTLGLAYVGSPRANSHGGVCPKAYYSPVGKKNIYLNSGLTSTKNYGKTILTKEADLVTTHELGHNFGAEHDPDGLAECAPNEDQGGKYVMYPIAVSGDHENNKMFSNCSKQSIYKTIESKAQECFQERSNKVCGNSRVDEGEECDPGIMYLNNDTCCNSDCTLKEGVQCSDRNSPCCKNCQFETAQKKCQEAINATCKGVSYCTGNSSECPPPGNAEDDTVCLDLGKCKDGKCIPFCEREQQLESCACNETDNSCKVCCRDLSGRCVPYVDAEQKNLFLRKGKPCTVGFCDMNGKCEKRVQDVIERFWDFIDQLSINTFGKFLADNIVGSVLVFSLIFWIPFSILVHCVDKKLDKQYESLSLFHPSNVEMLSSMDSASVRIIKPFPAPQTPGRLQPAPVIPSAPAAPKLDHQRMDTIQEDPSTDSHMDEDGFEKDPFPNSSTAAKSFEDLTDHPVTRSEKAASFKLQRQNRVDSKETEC
T4 sequence (P14780 107-707 limits assumed): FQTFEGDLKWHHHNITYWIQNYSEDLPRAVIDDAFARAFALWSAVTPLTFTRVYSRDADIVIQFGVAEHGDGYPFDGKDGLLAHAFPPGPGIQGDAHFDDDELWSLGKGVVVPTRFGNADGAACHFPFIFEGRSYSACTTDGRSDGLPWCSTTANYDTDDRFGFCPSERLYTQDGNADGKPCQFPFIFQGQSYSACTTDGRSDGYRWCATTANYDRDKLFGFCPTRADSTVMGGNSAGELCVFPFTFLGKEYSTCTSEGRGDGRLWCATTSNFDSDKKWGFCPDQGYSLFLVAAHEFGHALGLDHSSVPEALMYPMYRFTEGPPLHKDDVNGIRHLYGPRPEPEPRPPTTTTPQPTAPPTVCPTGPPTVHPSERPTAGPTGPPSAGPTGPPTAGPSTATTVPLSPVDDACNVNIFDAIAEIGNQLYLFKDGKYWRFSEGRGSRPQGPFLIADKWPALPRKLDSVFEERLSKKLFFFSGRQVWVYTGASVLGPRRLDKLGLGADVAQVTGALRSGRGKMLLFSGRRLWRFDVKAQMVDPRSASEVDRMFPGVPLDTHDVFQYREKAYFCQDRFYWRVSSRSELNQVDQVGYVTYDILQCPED
Chain of MMP-9 (P14780 94-707): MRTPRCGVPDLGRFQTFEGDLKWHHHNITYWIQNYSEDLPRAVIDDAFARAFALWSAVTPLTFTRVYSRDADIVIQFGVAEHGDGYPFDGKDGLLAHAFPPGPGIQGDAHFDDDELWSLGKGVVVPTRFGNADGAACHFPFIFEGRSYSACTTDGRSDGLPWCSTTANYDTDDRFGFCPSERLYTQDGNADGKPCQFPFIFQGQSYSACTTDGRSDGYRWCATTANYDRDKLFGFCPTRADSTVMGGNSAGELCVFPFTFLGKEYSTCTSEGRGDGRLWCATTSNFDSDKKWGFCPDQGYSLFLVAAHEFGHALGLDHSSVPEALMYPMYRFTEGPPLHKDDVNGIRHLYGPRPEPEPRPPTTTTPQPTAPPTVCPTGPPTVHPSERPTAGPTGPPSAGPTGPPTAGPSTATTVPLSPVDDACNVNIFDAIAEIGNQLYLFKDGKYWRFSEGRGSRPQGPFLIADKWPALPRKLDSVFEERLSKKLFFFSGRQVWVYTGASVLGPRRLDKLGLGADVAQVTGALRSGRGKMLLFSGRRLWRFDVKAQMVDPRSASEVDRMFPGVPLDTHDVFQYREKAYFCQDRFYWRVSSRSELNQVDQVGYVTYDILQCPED

CC1(C)NC(=O)N(C[C@@H](COc2ccc(-c3ccc(OC(F)(F)F)cc3)cc2)N(O)C=O)C1=O
Selectivity for MMP-2 versus MMP-1 (MMP-2 [1]): highly selective

CC1(C)OCC([C@@H](CS(=O)(=O)c2ccc(Oc3ccc(OC(F)(F)F)cc3)cc2)N(O)C=O)O1 (some centres unmarked)
Selectivity for inhibition of MMP-2 and MMP-9 over MMP-1 (MMP-2 and MMP-9): selective | Antitumor activity (tumor growth): demonstrated antitumor activity

O=C(NCCCCN1CCOCC1)c1cc2ccccc2o1 [CL-82198]
Inhibition of MMP-13 (MMP-13): weak inhibition | Activity against MMP-9 (MMP-9): complete lack of activity | Activity against TACE (TACE): complete lack of activity | Activity against MMP-1 (MMP-1): complete lack of activity

O=C(NC(=S)NCc1cc(-c2ccccc2)no1)c1ccccc1 [N-[(3-phenylisoxazol-5-ylmethyl)-aminothiocarbonyl]-benzamide]
IC50 Ratio (±) [2]: 0.09 | IC50 Ratio (±) (MMP-9 full length (9FL)): 0.39 | Mechanism of inhibition of MMP-2 (MMP-2 [3]): uncompetitive inhibitor | IC50 Ratio (±) (MMP-2 full length (2FL)): 0.10

Source: patent US20040171543A1, “Matrix metalloproteinase inhibitors and methods for identification of lead compounds” (priority 2002, published 2004)
